Reference: DBAASP
Values after ≈ are worked out from the molar mass of the structure shown. Values joined by “and” are separate entries in the source; they are usually repeats but may differ in a detail not shown here. Identical values can stand only once. Blank lines part the entries; values can stand above or below the compound they belong to.

Columns and labels:
Assay in all cases: ≥ marks a high value that may be exact or a test limit, other limits are often not marked, values filed in µg/mL are converted to µM
[1] = tested on: Enterococcus faecalis ATCC 29212
[2] = tested on: Escherichia coli ATCC 25922
[3] = tested on: Klebsiella pneumoniae ATCC 13883
[4] = tested on: Pseudomonas aeruginosa ATCC 27853
[5] = tested on: Staphylococcus aureus ATCC 25923
[6] = tested on: Staphylococcus aureus ATCC 29213
[7] = tested on: Streptococcus agalactiae ATCC 12386
[8] = tested on: Bacillus subtilis KCTC 3068
[9] = tested on: Escherichia coli KCTC 1682
[10] = tested on: Pseudomonas aeruginosa H1001
[11] = tested on: Pseudomonas aeruginosa KCTC 1637
[12] = tested on: Salmonella typhimurium KCTC 1926
[13] = tested on: Staphylococcus aureus KCTC 1621
[14] = tested on: Staphylococcus epidermidis KCTC 1917
[15] = tested on: Bacillus subtilis ATCC 6633
[16] = tested on: Candida albicans ATCC 2002
[17] = tested on: Enterococcus faecium NTCC 12697
[18] = tested on: Escherichia coli ATCC 8739
[19] = tested on: Klebsiella pneumoniae ATCC 43816
[20] = tested on: Pseudomonas aeruginosa ATCC 9027
[21] = tested on: Pseudomonas aeruginosa CMCCB 10104
[22] = tested on: Staphylococcus aureus ATCC 43300
[23] = tested on: Staphylococcus aureus ATCC 6538
[24] = tested on: Staphylococcus aureus NCTC 10788
[25] = tested on: Staphylococcus aureus NCTC 12493
[26] = tested on: Acinetobacter baumannii ATCC 19606
[27] = tested on: Bordetella bronchiseptica CUN 11844-99
[28] = tested on: Brucella abortus 9.49 (per-)
[29] = tested on: Pseudomonas aeruginosa CUN 4158-02
[30] = tested on: Staphylococcus aureus ΔmprFpRBsyn
[31] = tested on: Staphylococcus aureus ΔmprF
Staphylococcus aureus = tested on: Staphylococcus aureus
Yersinia pestis KIM pYV = tested on: Yersinia pestis KIM pYV
[32] = tested on: Bacillus licheniformis X39
[33] = tested on: Enterococcus faecalis 981
[34] = tested on: Klebsiella pneumoniae 08040724
[35] = tested on: Psychrobacter faecalis X29
[36] = tested on: Rhodococcus rhodochrous X15
Serratia rubidaea X01 = tested on: Serratia rubidaea X01
[37] = tested on: Staphylococcus carnosus KHS
[38] = tested on: Penicillium digitatum PHI-26

MIC [1]: 10 µM (≈ 25 µg/mL) | MIC [2]: 2 µM (≈ 5 µg/mL) | MIC [3]: 10 µM (≈ 25 µg/mL) | MIC [4]: 20 µM (≈ 50 µg/mL) | MIC [5]: 10 µM (≈ 25 µg/mL) | MIC [6]: 4.01 µM (≈ 10 µg/mL) | MIC [7]: 0.401 µM (≈ 1 µg/mL)
Structure (SMILES): CC[C@H](C)[C@H](NC(=O)CN)C(=O)NCC(=O)N[C@@H](CCCCN)C(=O)N[C@@H](Cc1ccccc1)C(=O)N[C@@H](CC(C)C)C(=O)N[C@@H](Cc1cnc[nH]1)C(=O)N[C@@H](CO)C(=O)N[C@@H](C)C(=O)N[C@@H](CCCCN)C(=O)N[C@@H](CCCCN)C(=O)N[C@@H](Cc1ccccc1)C(=O)N[C@@H](C)C(=O)N[C@@H](CCCCN)C(=O)N[C@@H](C)C(=O)N[C@@H](Cc1ccccc1)C(=O)N[C@H](C(=O)N[C@@H](C)C(=O)N[C@@H](CCC(=O)O)C(=O)N[C@H](C(=O)N[C@@H](CCSC)C(=O)N[C@@H](CC(N)=O)C(=O)N[C@@H](CO)C(N)=O)[C@@H](C)CC)C(C)C [GIGKFLHSAKKFAKAFVAEIMNS]

MIC [8]: 2.58 µM (≈ 5 µg/mL) | MIC [9]: 5.16 µM (≈ 10 µg/mL) | MIC [10]: 5.16 µM (≈ 10 µg/mL) | MIC [11]: 10.3 µM (≈ 20 µg/mL) | MIC [12]: 5.16 µM (≈ 10 µg/mL) | MIC [13]: 2.58 µM (≈ 5 µg/mL) | MIC [14]: 5.16 µM (≈ 10 µg/mL)
Structure (SMILES): CC[C@H](C)[C@H](N)C(=O)N[C@@H](CC(C)C)C(=O)N[C@@H](CCCCN)C(=O)N[C@@H](Cc1c[nH]c2ccccc12)C(=O)N[C@@H](CCCCN)C(=O)N[C@@H](Cc1c[nH]c2ccccc12)C(=O)N1CCC[C@H]1C(=O)N[C@@H](Cc1c[nH]c2ccccc12)C(=O)N[C@@H](Cc1c[nH]c2ccccc12)C(=O)N1CCC[C@H]1C(=O)N[C@@H](Cc1c[nH]c2ccccc12)C(=O)N[C@@H](CCCN=C(N)N)C(=O)N[C@@H](CCCN=C(N)N)C(N)=O [ILKWKWPWWPWRR]

MIC [38]: 8 µM and 15 µM
Structure (SMILES): CC[C@H](C)[C@H](NC(=O)CN)C(=O)NCC(=O)N[C@@H](C)C(=O)N[C@H](C(=O)N[C@@H](CC(C)C)C(=O)N[C@H](C(=O)N[C@H](C(=O)N[C@@H](CC(C)C)C(=O)N[C@H](C(=O)N[C@H](C(=O)NCC(=O)N[C@@H](CC(C)C)C(=O)N1CCC[C@H]1C(=O)N[C@@H](C)C(=O)N[C@@H](CC(C)C)C(=O)N[C@H](C(=O)N[C@@H](CO)C(=O)N[C@@H](Cc1c[nH]c2ccccc12)C(=O)N[C@H](C(=O)N[C@@H](CCCCN)C(=O)N[C@@H](CCCN=C(N)N)C(=O)N[C@@H](CCCCN)C(=O)N[C@@H](CCCN=C(N)N)C(=O)N[C@@H](CCC(N)=O)C(=O)N[C@@H](CCC(N)=O)C(N)=O)[C@@H](C)CC)[C@@H](C)CC)[C@@H](C)O)[C@@H](C)O)C(C)C)[C@@H](C)CC)C(C)C [GIGAVLIVLTTGLPALISWIKRKRQQ]

The remaining lines, values behind:

Structure (SMILES): CC[C@H](C)[C@@H]1NC(=O)[C@H](CCCCN)NC(=O)[C@@H](NC(=O)[C@H](CCCCN)NC(=O)[C@H](CC(C)C)NC(=O)[C@H](CCCCN)NC(=O)[C@H](CC(=O)O)NC(=O)[C@H](CC(C)C)NC(=O)[C@H](CC(C)C)NC(=O)[C@@H](NC(=O)[C@H](C)NC(=O)[C@H](C)NC(=O)[C@@H](NC(=O)[C@H](CC(N)=O)NC(=O)[C@H](CCCCN)NC(=O)[C@H](C)NC(=O)[C@@H](NC(=O)[C@H](CC(N)=O)NC(=O)[C@H](CCCCN)NC(=O)[C@H](C)NC(=O)[C@@H](NC(=O)[C@H](CC(=O)O)NC(=O)[C@H](CCSC)NC(=O)[C@H](Cc2ccccc2)NC(=O)CN)[C@@H](C)O)C(C)C)C(C)C)[C@@H](C)O)CSSC[C@@H](C(=O)O)NC(=O)CNC(=O)CNC(=O)[C@H]([C@@H](C)O)NC1=O [GFMDTAKNVAKNVAATLLDKLKCKITGGC]
MIC [15]: 12.5 µM (≈ 37.6 µg/mL) | MIC [16]: 4.81 µM (≈ 14.5 µg/mL) | MIC [17]: ≥ 256 µM | MIC [2]: 4.81 µM (≈ 14.5 µg/mL) | MIC [18]: ≥ 100 µM | MIC [19]: ≥ 128 µM | MIC [20]: ≥ 128 µM | MIC [21]: 4.81 µM (≈ 14.5 µg/mL) | MIC [5]: 2.42 µM (≈ 7.3 µg/mL) | MIC [22]: > 100 µM | MIC [23]: 25 µM (≈ 75.2 µg/mL) | MIC [24]: ≥ 32 µM | MIC [25]: ≥ 256 µM

Structure (SMILES): CC[C@H](C)[C@H](NC(=O)[C@H](CCCN=C(N)N)NC(=O)[C@H](CCCN=C(N)N)NC(=O)[C@H](CC(C)C)NC(=O)[C@H](Cc1ccccc1)NC(=O)[C@@H](NC(=O)[C@H](CCCN=C(N)N)NC(=O)[C@H](CCSC)NC(=O)[C@@H](NC(=O)[C@H](CCCCN)NC(=O)[C@H](CCCCN)NC(=O)[C@H](CO)NC(=O)[C@@H](NC(=O)CNC(=O)[C@H](CCCN=C(N)N)NC(=O)[C@H](CC(C)C)NC(=O)[C@@H](NC(=O)[C@@H](N)CCCCN)[C@@H](C)CC)C(C)C)[C@@H](C)CC)[C@@H](C)O)C(=O)N[C@@H](CO)C(=O)N[C@@H](CCCCN)C(=O)N[C@@H](CC(=O)O)C(=O)N[C@H](C(=O)N[C@@H](CC(C)C)C(=O)N[C@H](C(=O)NCC(=O)N[C@@H](CCCCN)C(=O)N[C@@H](CCCCN)C(N)=O)[C@@H](C)O)[C@@H](C)CC [KILRGVSKKIMRTFLRRISKDILTGKK]
MIC [26]: 0.628 µM (≈ 2 µg/mL) | MIC [27]: 1.26 µM (≈ 4 µg/mL) | MIC [28]: 0.628 µM (≈ 2 µg/mL) | MIC [2]: 1.26 µM (≈ 4 µg/mL) | MIC [29]: 1.26 µM (≈ 4 µg/mL) | MIC [22]: 40.2 µM (≈ 128 µg/mL) | MIC [30]: 1.26 µM (≈ 4 µg/mL) | MIC [31]: 1.26 µM (≈ 4 µg/mL) | MIC (Staphylococcus aureus): 20.1 µM (≈ 64 µg/mL) | MIC (Yersinia pestis KIM pYV): 5.02 µM (≈ 16 µg/mL)

Structure (SMILES): CC[C@H](C)[C@@H]1NC(=O)CNC(=O)[C@@H](NC(=O)[C@H](CCCN=C(N)N)NC(=O)[C@@H](NC(=O)[C@H](CCCCN)NC(=O)[C@H](CC(=O)O)NC(=O)[C@H](CC(C)C)NC(=O)[C@@H](NC(=O)[C@H](CC(N)=O)NC(=O)[C@@H](NC(=O)[C@H](C)NC(=O)[C@H](Cc2ccccc2)NC(=O)[C@H](CCCCN)NC(=O)[C@H](CCCCN)NC(=O)CNC(=O)[C@H](C)NC(=O)[C@H](CCC(=O)O)NC(=O)[C@H](CCCCN)NC(=O)[C@@H](NC(=O)[C@@H](NC(=O)[C@H](CC(N)=O)NC(=O)[C@H](Cc2c[nH]c3ccccc23)NC(=O)[C@H](CC(C)C)NC(=O)CN)[C@@H](C)O)[C@@H](C)CC)[C@@H](C)CC)C(C)C)[C@@H](C)CC)CSSC[C@@H](C(=O)N[C@@H](CCCCN)C(=O)N[C@H](C(=O)O)[C@@H](C)O)NC(=O)CNC(=O)CNC(=O)[C@H](C)NC1=O [GLWNTIKEAGKKFAINVLDKIRCGIAGGCKT]
MIC [32]: 19 µM (≈ 62.8 µg/mL) | MIC [33]: ≥ 75 µM | MIC [2]: 150 µM (≈ 496 µg/mL) | MIC [34]: ≥ 150 µM | MIC [35]: 4.5 µM (≈ 14.9 µg/mL) | MIC [36]: 2.3 µM (≈ 7.6 µg/mL) | MIC (Serratia rubidaea X01): 4.6 µM (≈ 15.2 µg/mL) | MIC [5]: 150 µM (≈ 496 µg/mL) | MIC [37]: 19 µM (≈ 62.8 µg/mL)
